# Source: US10222381B2, “Water-soluble peptide fluorescence material” (NATIONAL CHIAO TUNG UNIVERSITY, priority 2015, dated 2019)
# Residues, ends and D or L forms follow the SMILES beside them. *: point of attachment. X1 = O=C1c2cccc3c(N4CCCCC4)ccc(c23)C(=O)C1CC(=O)*
# Assays:
# [1] = system: acidic cells in living cells; test: Fluorescence marking of acidic cells in living cells, compared with Lysotracker; assay type: cell-based; conditions: for fluorescence appearing at the acidic cells: living cells, FIGS. 1A/1B
# Description: The water-soluble peptide fluorescence material is designed to illuminate in acid, neutral or weak base environment, and following embodiments give an example illuminating in acid environment. FIGS. 1A, 1B and 1C are comparative pictures between a water-soluble peptide fluorescence material of the present disclosure and a traditional fluorescence material at the same concentration. The water-soluble peptide fluorescence material has a structure of following formula including a peptide sequence Phe-Asp-Gly-Glu-Ala (SEQ ID NO: 5):
# Continuing in FIG. 1B to compare with FIG. 1A, FIG. 1B uses the water-soluble peptide fluorescence material of the present disclosure, which is also used to mark acidic cells in living cells. […] Accordingly, the water-soluble peptide fluorescence material is suitable for a biological fluorescence probe, so as to detect and mark positions of the acidic cells.
# At the same concentration, the water-soluble peptide fluorescence material has the greater fluorescence intensity than that of Lysotracker. On this base, a dose of the water-soluble peptide fluorescence material could be decreased to achieve the same fluorescence intensity with the Lysotracker, so as to decrease medical costs and damage to human bodies.
# [2] = Fluorescence intensity and emission wavelength at different pH values; assay type: physicochemical
# Description: In Experimental Examples 210, 220, 230, 240, 250, 260, 270 and 280, the above water-soluble peptide fluorescence material is respectively placed in environments having a pH value of 10, 9, 8, 7, 6, 5, 4 and 3 for testing. In Experimental Examples 210 to 230, the water-soluble peptide fluorescence material is respectively placed in environments having the pH value of 10, 9 and 8.
# Continuing in FIG. 5, which illustrates a fluorescence intensity and an emission wavelength of the water-soluble peptide fluorescence material of formula (III-10) at different pH values. In Experimental Examples 510, 520, 530, 540, 550, 560, 570 and 580, the water-soluble peptide fluorescence material of formula (III-10) is respectively placed in environments having a pH value of 10, 9, 8, 7, 6, 5, 4 and 3 for testing. In Experimental Examples 510 to 560, the water-soluble peptide fluorescence material is placed in environments having the pH value of 10 to 5, and two emission peaks are shown in FIG. 5. […] Then, the pH value is further decrease to 4 (Experimental Example 570) and 3 (Experimental Example 580), and only the emission peak at about 400 nm is remained, so the observed fluorescence has a color of purple in Experimental Examples 570 and 580. Therefore, the water-soluble peptide fluorescence material of formula (III-10) is able to detect and mark locations of acidic cells by change of the color.
# Continuing in FIG. 7, which illustrates a fluorescence intensity and an emission wavelength of the water-soluble peptide fluorescence material of formula (III-21) at different pH values. In Experimental Examples 710, 720, 730, 740, 750, 760, 770 and 780, the water-soluble peptide fluorescence material of formula (III-21) is respectively placed in environments having a pH value of 10, 9, 8, 7, 6, 5, 4 and 3 for testing. In Experimental Examples 710 to 750, the water-soluble peptide fluorescence material is placed in environments having the pH value of 10 to 6. […] However, the fluorescence intensity of Experimental Examples 780 is decreased when the pH value is decreased from 4 to 3.
# Continuing in FIG. 8, which illustrates a fluorescence intensity and an emission wavelength of the water-soluble peptide fluorescence material of formula (III-22) at different pH values. In Experimental Examples 810, 820, 830, 840, 850, 860, 870 and 880, the water-soluble peptide fluorescence material of formula (III-22) is respectively placed in environments having a pH value of 10, 9, 8, 7, 6, 5, 4 and 3 for testing. In Experimental Examples 810 to 850, the water-soluble peptide fluorescence material is respectively placed in environments having the pH value of 10 to 6. […] In addition, the fluorescence intensity of Experimental Example 860 (pH=5) is 90 times of the fluorescence intensity of Experimental Example 810 […], which represents that the water-soluble peptide fluorescence material has obvious light-emitting interval and easily to identify and detect positions of the acidic cells.
# FIG. 10 illustrates a fluorescence intensity and an emission wavelength of the water-soluble peptide fluorescence material of formula (III-23) at different pH values. In Experimental Examples 1010, 1020, 1030, 1040, 1050, 1060, 1070 and 1080, the water-soluble peptide fluorescence material of formula (III-23) is respectively placed in environments having a pH value of 10, 9, 8, 7, 6, 5, 4 and 3 for testing. In Experimental Examples 1010 to 1050, the water-soluble peptide fluorescence material is respectively placed in environments having the pH value of 10 to 6. […] The water-soluble peptide fluorescence material not only provides obvious marker, but also achieves the same effect of the fluorescence at a low concentration, and thereby reduces the costs.
# FIG. 11 illustrates a fluorescence intensity and an emission wavelength of the water-soluble peptide fluorescence material of formula (III-27) at different pH values. […]
# [3] = Survival rate of PC-3 cells in the fluorescence material; assay type: cell-based; conditions: human, two days, PC-3 cell
# Description: (§1) The above experimental result is much better than a standard of IC50 (50% inhibitory concentration). IC50 represents a concentration of a drug that is required for 50% survival rate of the cells, which means that a certain concentration of a drug is used to detect a cell mortality rate of 50%, and the certain concentration is also referred as 50% inhibitory concentration. Described in different ways, when a ratio of death cells to original cells is 50%, the corresponding concentration is 50% inhibitory concentration. The water-soluble peptide fluorescence material of the present disclosure has low toxicity and excellent compatibility to PC-3 cells, so as to avoid mass mortality of the cells. In addition, HeLa, MCF-7, CTXTAN2, PC12, WSI, 3T3L1 cells are also tested. The water-soluble peptide fluorescence material has excellent compatibility with these cells since the survival rate of these cell are all over 50%.
# [4] = Survival rate of HeLa cells; assay type: cell-based; conditions: human
# Description: as §1
# [5] = Survival rate of MCF-7 cells; assay type: cell-based; conditions: human
# Description: as §1
# [6] = Survival rate of CTXTAN2 cells; assay type: cell-based; conditions: rat
# Description: as §1
# [7] = Survival rate of PC12 cells; assay type: cell-based; conditions: rat
# Description: as §1
# [8] = Survival rate of WSI cells; assay type: cell-based; conditions: human
# Description: as §1
# [9] = Survival rate of 3T3L1 cells; assay type: cell-based; conditions: mouse
# Description: as §1
# [10] = Fluorescence in co-solvents of glycerol and methanol (aggregation-induced emission); assay type: physicochemical
# Description: Continuing in FIG. 6, which illustrates a fluorescence intensity and an emission wavelength of the water-soluble peptide fluorescence material of formula (III-14) in co-solvents having different proportions of glycerol and methanol. In Experimental Example 601, 602, 603, 604, 605, 606, 607, 608, 609 and 610, methanol respectively has 0, 10, 20, 30, 40, 50, 60, 70, 80 and 90% of a total volume of the co-solvent. […] Given the above, the fluorescence intensity of the water-soluble peptide fluorescence material of formula (III-14) is increased corresponding to the increase of the volume ratio of methanol, so the water-soluble peptide fluorescence material of formula (III-14) also has a phenomenon of aggregation-induced emission (AIE) in methanol. In addition, the water-soluble peptide fluorescence material of formula (III-14) has the emission wavelength of about 550 nm, so the observed fluorescence has a color of green.
compound,measurement,setting,value
C[C@H](NC(=O)[C@H](CCC(=O)O)NC(=O)CNC(=O)[C@H](CC(=O)O)NC(=O)[C@H](Cc1ccccc1)NC(=O)CC1C(=O)c2cccc3c(N4CCCCC4)ccc(c23)C1=O)C(=O)O (stereo partly drawn) (X1-FDGEA-OH),fluorescence appearing at the acidic cells,[1],green fluorescence
same,cellular position of fluorescence compared with Lysotracker,[1]; overlapped picture FIG. 1C,substantially the same as Lysotracker
same,fluorescence intensity compared with Lysotracker,"[1]; same concentration, acidic cells in living cells",greater than that of the red fluorescence of Lysotracker
same,ratio of fluorescence intensity pH 3 to pH 7,[2]; Experimental Examples 240 and 280,25.5 times
same,fluorescence intensity,[2]; pH 3,about 900 fluorescent units
same,fluorescence intensity,[2]; pH 4,about 500 fluorescent units
same,color of fluorescence,[2]; pH 5,green
same,emission peak,[2]; pH 5,about 550 nm
same,fluorescence intensity,[2]; pH 5,about 350 fluorescent units
same,fluorescence intensity,"[2]; pH 6, compared to pH 10 to 7",no significant change
same,fluorescence intensity,"[2]; pH 7, neutral environment",slightly increased
same,fluorescence intensity,"[2]; pH 10, 9 and 8",low fluorescence intensities
same,"viability at 48 h, 500 µM",[3],80%
same,viability,[4],> 50%
same,viability,[5],> 50%
same,viability,[6],> 50%
same,viability,[7],> 50%
same,viability,[8],> 50%
same,viability,[9],> 50%
O=C(CN1C(=O)c2cccc3c(N4CCCCC4)ccc(c23)C1=O)NC(Cc1ccccc1)C(=O)NC(Cc1ccccc1)C(=O)O (stereo not drawn) [III-14],fluorescence intensity with increase of the volume ratio of methanol,[10]; aggregation-induced emission,increased
same,color of observed fluorescence,[10]; glycerol/methanol co-solvent,green
same,emission wavelength,[10]; glycerol/methanol co-solvent,about 550 nm
same,fluorescence intensity,"[10]; methanol 90% (Experimental Example 610), methanol 0 to 90% tested",largest fluorescence intensity
"CN(C)CCNC(=O)CCc1ccc2n1[B-](F)(F)[N+]1=C(c3ccc[nH]3)C=CC1=C2 [Lysotracker, reference compound]",fluorescence appearing at the acidic cells,[1],red fluorescence
